Test results taken from patent publication US9956192B2, “Selective histone deactylase 6 inhibitors” (H. Lee Moffitt Cancer Center and Research Institute, Inc., priority 2012, dated 2018).

Key:
[1] = tested on: B16 murine melanoma cells; assay: B16 melanoma cell growth inhibition assay (MTS); assay type: cell-based
Procedure: The following day, media was changed to that containing various concentrations of HDACi or matched DMSO vehicle concentrations diluted in complete medium done in triplicate. […] Briefly, 20 μL of reagent were added per well and incubated at 37° C. for 3 hours.

[2] = tested on: JAK2/STAT3 in B16 murine melanoma cells; assay: JAK2/STAT3 phosphorylation in B16 melanoma in vivo
[3] = tested on: antigen-specific T-cell responses; assay: In vivo antigen-specific T-cell responses to vaccination; design: species or system mice; settings: in vivo treatment
Source text: Tubastatin A-treated macrophages are better activators of […] and restore the responsiveness of anergic T-cells in vitro. […] Mechanistically, Tubastatin-A disrupt […] pathway and tip the balance towards immunogenic rather than tolerogenic macrophages.

[4] = tested on: STAT3 in APCs; assay: STAT3 phosphorylation and recruitment to IL-10 gene promotor in APCs; assay type: cell-based
Source text: FIG. 26 is a flow chart depicting the experimental design of the in vitro antigen-presenting studies.
Human MCL cells display an enhanced expression of HDAC6. Disruption of HDAC6 in malignant B-cells inhibits their proliferation and is associated with induction of apoptosis. Pharmacologic or genetic disruption of HDAC6 in MCL cells augment their antigen-presenting capabilities leading to better T-cell activation and restoration of function of anergic Tcells in vitro. […] Disclosed herein is the rationale to use HDAC6 specific inhibitor(s) alone or in combination with STAT3 inhibitors in MCL.

[5] = target: human, recombinant full-length HDAC1 (Homo sapiens (Human), UniProt Q13547); assay: HDAC inhibition assay, HDAC1; assay type: biochemical; settings: HDAC1 and HDAC6, not selective
[6] = tested on: acetyl-H3 in B16 melanoma cells; assay: Histone acetylation Western blot assay; assay type: cell-based, murine; settings: 24 h
Procedure: (§1) […]. B16 melanoma cells were plated at 10^5 cells/well in 12 well plates and allowed to adhere overnight. A 50 mM stock of compound was then added by serial dilutions in complete medium to the indicated concentrations. Cells were incubated for 24 h under humidified conditions (37° C., 5% CO2). Wells were then washed with cold PBS, and cells were lysed in a buffer containing 10 mM Tris-HCl pH 8.0, 10% SDS, […], 100 mM DTT, and 1× protease inhibitor (Roche). Cells were lysed for 30 min on ice and then sonicated for 8 min (8 cycles of 30 s on/30 s rest). Cells were then boiled for 10 min with 6× gel loading buffer and resolved on 4-15% gradient gels and subsequently transferred onto nitrocellulose membranes. Membranes were blocked with 5% milk in PBS-T and detection of specific antigens using antibodies against acetyl-H3 and H3 (Cell Signaling), and acetyl-α-tubulin and α-tubulin (Sigma). Bands were detected by scanning blots with LI-COR Odyssey imaging system using both 700 and 800 channels.

[7] = tested on: acetyl-α-tubulin in B16 melanoma cells; assay: Tubulin acetylation Western blot assay; assay type: cell-based, murine; settings: 24 h, low nanomolar treatment
Procedure: as §1

Chain of human, recombinant full-length HDAC1 (Q13547 whole entry): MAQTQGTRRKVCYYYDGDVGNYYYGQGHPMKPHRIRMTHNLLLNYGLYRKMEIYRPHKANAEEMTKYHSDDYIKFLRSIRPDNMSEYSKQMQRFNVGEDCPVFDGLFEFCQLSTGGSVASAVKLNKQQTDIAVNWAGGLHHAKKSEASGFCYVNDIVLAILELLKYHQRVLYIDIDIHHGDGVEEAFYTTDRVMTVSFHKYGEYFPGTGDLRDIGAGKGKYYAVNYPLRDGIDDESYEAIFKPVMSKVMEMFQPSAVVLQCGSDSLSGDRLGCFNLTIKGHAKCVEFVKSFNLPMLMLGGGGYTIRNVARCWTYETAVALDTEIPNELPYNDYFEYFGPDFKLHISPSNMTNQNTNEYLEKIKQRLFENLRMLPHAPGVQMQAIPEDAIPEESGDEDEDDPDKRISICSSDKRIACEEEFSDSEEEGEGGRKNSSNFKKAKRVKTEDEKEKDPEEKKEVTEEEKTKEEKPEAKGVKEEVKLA

COc1ccccc1NC(=O)N(CCCO)Cc1ccc(C(=O)NO)cc1 [Compound 5b, N-hydroxy-4-((1-(3-hydroxypropyl)-3-(2-methoxyphenyl)ureido)methyl)-benzamide]
growth inhibition of B16 melanoma cell line (in words) [1]: performed very poorly in the cellular assay

CN1CCc2c(c3ccccc3n2Cc2ccc(C(=O)NO)cc2)C1 [Tubastatin A]
JAK2/STAT3 phosphorylation [2]: inhibits JAK2/STAT3 phosphorylation
antigen-specific T-cell responses to vaccination [3]: enhances antigen-specific T-cell responses to vaccination
STAT3 phosphorylation and recruitment to the IL-10 gene promotor [4]: decreased STAT3 phosphorylation and recruitment

O=C(NO)c1ccc(CN(CCc2ccccc2)C(=O)Nc2ccccc2)cc1 [Compound 5h, N-hydroxy-4-((1-phenethyl-3-phenylureido)methyl)benzamide]
growth inhibition of B16 melanoma cell line (in words) [1]: capable of inhibiting the growth of B16 melanoma cell line

COc1ccccc1NC(=O)NCc1ccc(C(=O)NO)cc1 [Compound 1]
HDAC inhibitory activity (in words) [5]: submicromolar HDAC inhibitory activity

CCCCN(Cc1ccc(C(=O)NO)cc1)C(=O)Nc1ccccc1 [Compound 5g, 4-((1-butyl-3-phenylureido)methyl)-N-hydroxybenzamide]
histone H3 acetylation ([6]; 1 and 10 μM): observable increase in histone H3 acetylation
histone H3 acetylation ([6]; low nanomolar treatment): without a concamanent elevation of histone H3 acetylation
acetyl α-tubulin levels [7]: dose-dependant increase of acetyl α-tubulin levels
